Data published in PMC3570346, “PET imaging of brain inflammation during early epileptogenesis in a rat model of temporal lobe epilepsy” (EJNMMI Research, 2012).

Key:
[1] = [^18F]-PBR111 metabolite analysis in plasma (solid phase extraction); assay type: in vivo, rat; details: 50-min post-injection
Text: To establish a standard curve of [^18F]-PBR111 metabolism, blood samples were obtained in four control rats (304 ± 10 g) and six KASE rats (312 ± 8 g, minor to medium SE), which were maintained under anaesthesia to mimic the conditions of the PET scan (Table 1). Animals were anaesthetised with 5% isoflurane for induction and 1% to 3% for maintenance, administered in medical oxygen. An incision was made in the inner thigh of the hind leg, and the femoral artery was exposed and loosely tied off after blunt dissection of the surrounding tissue. A polyethylene cannula filled with heparinised saline (20 IU/ml) was placed into the femoral artery and threaded 3 cm proximally.
Animals were injected intravenously with [^18F]-PBR111 (injected dose (ID) = 14.1 to 38.7 MBq). […] The line was flushed with saline, and the remaining radioactivity was measured in the line and syringe. […] Plasma samples (0.1 ml) were weighed and the radioactivity was measured in a Wallac γ-counter. […]
SPE analysis was performed on Oasis cartridges (Waters Oasis® HLB, 30 μm, 60 mg) that were preconditioned with 1 ml ethanol followed by 5 ml water. […] The radioactivity in each fraction and that remaining on the cartridge was measured with a Wallac γ-counter. Data were expressed as the percentage of unmetabolised parent compound (^18F]-PBR111) in the plasma sample. […]

[2] = Stability of [^18F]-PBR111 in whole rat blood (1 h on the bench); assay type: in vitro ADME; details: samples from 2- and 5-min post-injection left on the bench for 1 h vs processed immediately
Protocol: Animals were injected intravenously with [^18F]-PBR111 (injected dose (ID) = 14.1 to 38.7 MBq). The tracer was infused via the dorsal penile vein (maximum volume of 0.3 ml) using a Harvard Apparatus Pump 11 plus syringe pump (Holliston, MA, USA) over a constant time interval of 1 min. The line was flushed with saline, and the remaining radioactivity was measured in the line and syringe. Different ranges of tracer mass (0.07 to 4.00 nmol) were injected to evaluate whether this would affect the tracer metabolism. Arterial blood samples (0.2 ml) were withdrawn via a cannula implanted in the femoral artery from 2 to 60 min after the start of injection. The whole blood was then centrifuged at 3,000 rpm for 10 min, and the plasma was collected. Plasma samples (0.1 ml) were weighed and the radioactivity was measured in a Wallac γ-counter. At 2- and 5-min post-injections, the samples were taken in duplicate. One sample was left on the bench for 1 h, and the other was processed immediately to evaluate the stability in whole rat blood.

In the case of `CCN(CC)C(=O)Cc1c(-c2ccc(OCCC[18F])cc2)nc2ccc(Cl)cn12` [[^18F]-PBR111], the “Percentage of parent compound in plasma” value ([1]; control animals) is reported as 20.8 ± 1.3%, the “Percentage of parent compound in plasma” value ([1]; severe SE animals) is reported as 20.1 ± 1.3% and the “Stability in whole rat blood” value [2] is reported as “not further metabolised in vitro in whole rat blood”.
